Experimental data as given in paper PMC8782015, “Coumarin Derivatives Exert Anti-Lung Cancer Activity by Inhibition of Epithelial–Mesenchymal Transition and Migration in A549 Cells” (Pharmaceuticals, 2022).

Tests used:
A549 cells [1] = conditions: cited from earlier work
A549 cells [2] = assay: MTT cell viability assay on A549 cells; format: cell-based, human; conditions: 24 h; for cytotoxicity (A549 cells viability, in words): single concentration 12 µM
Description: All the synthetic coumarins (7, 8a–f, 9a–g, 10, 11, 12a–c, 13a–c, 14–17) were first screened for their in vitro cytotoxic activity at a single concentration (12 µM) against NSCLC cell line (human lung adenocarcinoma A549) for 24 h, using the well-established 3-(4,5-dimethylthiazol-2-yl)-2,5-diphenyltetrazolium bromide (MTT) assay.
The effect of coumarin derivatives on cell viability was evaluated by the MTT assay at a single dose according to the NCI testing protocol or at different concentrations for IC50 determination. Coumarin derivatives were dissolved in dimethyl sulfoxide (DMSO) and then diluted with DMEM. Briefly, cells were plated in 96-well plates (2 × 10^4/well) and each coumarin derivative at 12 µM was added to the culture medium, and the cell cultures were continued for 24 h. Cisplatin (2.6 µM) was used as a reference drug. Thereafter, the medium was replaced with fresh DMEM containing 5 mg/mL MTT. Following an incubation period (4 h) in a humidified CO2 incubator at 37 °C and 5% CO2, the supernatant was removed, and dimethyl sulfoxide solution (DMSO, […]) was added to each cultured plate. After incubation at room temperature for 15 min, the absorbance of the solubilized MTT formazan product was spectrophotometrically measured at 540 nm. Three individual wells were assayed for each treatment, and the percentage viability relative to the control sample was determined as (absorbance of treated cells/absorbance of untreated cells) × 100%. Only the compound that reduced the viability by more than half the value of the control cells were screened in a range of concentration (10^−8 to 10^−3 M) with the A549, H2170, and NHI-3T3 cell lines. The concentration of 9f compound that reduced the viable cell number by 50% (CC50) was determined using a non-linear regression approach, and the mean value of CC50 for each cell type was calculated from triplicate.
Figure 1 Effect of synthetic coumarin derivatives on cell viability. The viability of A549 cells was determined using the MTT assay after exposure at a single concentration (12 µM) of the compounds or cisplatin (2.6 µM) for 24 h. The percentage of inhibition was calculated considering the cells treated with medium (DMEM), which was considered as 100% of cell viability (dotted line). Bars represent the mean ± S.D. from three independent experiments.
1.1. In vitro cytotoxicity assay of 9f compound on A549, H2170 and NIH3T3 cells
In order to determine the cytotoxic effect of 9f compound, the tumor cell lines A549 and H2170, and non-tumor cell line NHI-3T3 (1×10^5 per well) were seeded in the presence of the 9f compound concentration (1×10-3 to 1×10^-8 M) in 96-well microliter culture plate in a humidified CO2 (5%) incubator at 37 °C for 24h. Cell viabilities were measured using MTT assay as described in Materials and Methods Section. Three individual wells were assayed for each treatment and the percentage viability relative to the control sample was determined as (absorbance of treated cells/absorbance of untreated cells)×100%. A nonlinear regression analysis calculated using Prism 7.0 software (Graph- […]
25.8 ± 1.7 µM to NHI-3T3 cells (Figure S1).
Figure S1. Cytotoxicity assay (CC50) of increasing concentration of 9f compound on tumor cell lines (A549 and H2170) and non-tumor cell line (NHI-3T3) after 24 hours using MTT assay. All data were reported as the mean ± S.D. CC50 (M) values were calculated from the dose response curve using Prim 7 software.
(1 picture or pasted object on this page, not shown here)

A549 cells [3] = assay: In vitro scratch wound healing assay; format: cell-based, human; conditions: 7 µM, 24 h, IL-1β-stimulated A549 cells
Description: To evaluate the effect of 9f on epithelial motility, we performed the scratch assay as described by Cardoso et al.. Cells were maintained in 24-well plates until they reached 90% confluency. Thereafter, a vertical stripe on the cell monolayer was made using a sterile pipette (200 μL) tip. The wells were washed with PBS to remove dead cells and debris, and then, 9f was added at a concentration of 7 µM. As a control, the cells were treated with cell culture medium. Photographs were captured by a digital camera connected to an inverted microscope (Olympus IX70) at 0 and 24 h after scratch. The migration gap area of the cells was measured by ImageJ software (https://imagej.nih.gov/ij/; accessed on 24 November 2020, Center for Information Technology, National Institute of Health, Bethesda, […], USA). Each measurement was repeated three times.
Figure 4 The effect of 9f on the migration of A549 cells assayed by the wound-healing assay. Cells were treated with 9f at 7 µM, and images were captured to calculate the scratch closure. In (A), representative photomicrography images showing the cell migration toward the cell-free area after treatment with DMEM (control) or 9f and after 24 h. […] Values represent mean ± S.D. from three independent experiments. (+++) p < 0.001 compared with respective DMEM-treated cells and (***) p < 0.001 compared with IL-1β-stimulated cell vehicle-treated cells.

vimentin in A549 cells = assay: Vimentin expression by immunofluorescence and flow cytometry; format: cell-based, human; conditions: 7 µM, 24 h
Description: (§1) For induction of the EMT process, A549 cells (1 × 10^5 per well) were seeded in 24-well culture plates and treated with 1 ng/mL IL-1β (Peprotech, Rocky Hill, NJ, USA) for 24 h. In the unstimulated cells, DMEM medium was added. Then, the morphological alteration of cells was observed under a microscope. This protocol for EMT induction is as reported in the previous literature. To evaluate the effects of coumarin derivative with respect to EMT induced by IL-1β, cells were pretreated with compound 9f at 7 µM, being this treatment also maintained during stimulation with IL-1β for 24 h.
In another set of experiments, the analysis for vimentin, a well-recognized marker for its selective expression and specific role in the mesenchymal state, was performed. […] Stained cells were analyzed by a flow cytometer (FACSCanto II, Becton Dickinson, San Jose, CA, USA) accompanied with the BD FACSDIVA™ software for data analysis. The cell-associated fluorescence of 5000 cells per sample was measured as mean fluorescence intensity (MFI) in the FL1 channel. The MFI values were corrected for unspecific staining by subtracting the fluorescence of cells unstained (negative control).
Figure 3 Compound 9f downregulates the expression of mesenchymal cell marker vimentin in IL-1β-induced EMT. […] The mesenchymal markers vimentin was detected by immunofluorescence. […] Magnification ×400 for fluorescence microscope. […]

H2170 cells = assay: MTT cell viability assay (CC50) on H2170 cells; format: cell-based; conditions: Homo sapiens, NCI-H2170, 24 h, mean ± S.D., read-out: CC50 (concentration that reduces the viable cell number by 50%)
Description: (§2) Among these two compounds, 9f was the most promising, reducing the A549 cells viability to less than 20%. […] Distinct explanations might be used to sustain this fact, including biochemical and metabolic changes between cell lines. While normal cells follow a set of organized metabolic programs, cancer cells show intrinsic or acquired resistance to apoptosis and also a metabolic reprogramming in order to meet the increased energy demands.
(§3) The effect of coumarin derivatives on cell viability was evaluated by the MTT assay at a single dose according to the NCI testing protocol or at different concentrations for IC50 determination. […] After incubation at room temperature for 15 min, the absorbance of the solubilized MTT formazan product was spectrophotometrically measured at 540 nm. Three individual wells were assayed for each treatment, and the percentage viability relative to the control sample was determined as (absorbance of treated cells/absorbance of untreated cells) × 100%. […]
In order to determine the cytotoxic effect of 9f compound, the tumor cell lines A549 and H2170, and non-tumor cell line NHI-3T3 (1×10^5 per well) were seeded in the presence of the 9f compound concentration (1×10-3 to 1×10^-8 M) in 96-well microliter culture plate in a humidified CO2 (5%) incubator at 37 °C for 24h. Cell viabilities were measured using MTT assay as described in Materials and Methods Section. […]

[4] = MTT cell viability assay (CC50) on NIH-3T3 cells; format: cell-based; conditions: mouse, NIH-3T3 fibroblast cells (non-tumour), NIH-3T3 non-cancer cells, mean ± S.D., read-out: CC50 (concentration that reduces the viable cell number by 50%)
Description: as §2
A549, H2170, and normal mouse fibroblast (NIH-3T3) cell lines were obtained from the Rio de Janeiro Cell Bank (BCRJ). […]
as §3
Figure S1. […] All data were reported as the mean ± S.D. CC50 (M) values were calculated from the dose response curve using Prim 7 software. […]

[5] = system: IL-1β-stimulated A549 cells; assay: IL-1β-induced EMT: cell morphology and F-actin (FITC-phalloidin) staining; format: cell-based, human; conditions: 7 µM, 1 ng/mL IL-1β, 24 h
Description: as §1
After 24 h, cells were fixed for 15 min at 4 °C with 4% paraformaldehyde in PBS. […] Cell morphology was determined using an inverted epifluorescence microscope (Nikon Eclipse 50i). Fluorescence quantification was done using ImageJ 1.47 software (NIH, Bethesda, MD, USA). Images were analyzed through the “Measure” menu, which allowed analyzing the fluorescence intensity signal per cell from original photomicrographs.
Figure 2 Compound 9f inhibited IL-1β-induced EMT in vitro. […] Cells were photographed using phase-contrast microscopy (A–D) or fluorescence microscopy (E–H). […] Actin (green) was detected via immunofluorescence in formaldehyde-fixed cells with FITC-conjugated phalloidin (1:100). […] Magnification ×100 (insert, magnification ×200) for phase-contrast microscope and ×400 for fluorescence microscope.

CC(=O)Oc1ccc2cc(-c3ccc(S(C)(=O)=O)cc3)c(=O)oc2c1OC(C)=O [8-(acetyloxy)-3-(4-methanesulfonylphenyl)-2-oxo-2H-chromen-7-yl acetate]
IC50 (A549 cells [1]): 24.2 µM

COc1ccccc1-c1ccc2ccc(=O)oc2c1 [Compound 8b]
cytotoxicity (A549 cells viability, in words) (A549 cells [2]): little or no cytotoxicity

COc1ccccc1-c1ccc2oc(=O)ccc2c1 [Compound 9c]
cytotoxicity (A549 cells viability, in words) (A549 cells [2]): little or no cytotoxicity

O=c1ccc2cc(-c3ccc(Cl)c(Cl)c3)ccc2o1 [Compound 9f]
migration (wound closure) (A549 cells [3]): significantly reduced
expression of mesenchymal marker vimentin (vimentin in A549 cells; IL-1β-stimulated (1 ng/mL) A549 cells): significantly diminished
levels of vimentin expression (vimentin in A549 cells; cells unstimulated with IL-1β): did not change
CC50 (H2170 cells): 3.3 ± 0.5 µM
CC50 at 24 h [4]: 25.8 µM
CC50 (A549 cells [2]; Homo sapiens, A549 cells, mean ± S.D., read-out: CC50 (concentration that reduces the viable cell number by 50%)): 7.1 ± 0.8 µM
actin cytoskeleton reorganization ([5]; FITC-labeled phalloidin): attenuated the changes in the actin cytoskeleton reorganization
morphological changes (mesenchymal characteristics) induced by IL-1β ([5]; phase-contrast microscopy): impairment in changes in its mesenchymal characteristics induced by IL-1β

O=c1ccc2ccc(C#CCO)cc2o1 [Compound 12c]
cytotoxicity (A549 cells viability, in words) (A549 cells [2]): little or no cytotoxicity

O=c1ccc2cc(C#CCCCc3ccccc3)ccc2o1 [Compound 13b]
cytotoxicity (A549 cells viability, in words) (A549 cells [2]): little or no cytotoxicity

O=c1ccc2cc(Cc3ccccc3)ccc2o1 [Compound 14]
cytotoxicity (A549 cells viability, in words) (A549 cells [2]): little or no cytotoxicity

O=c1ccc2ccc(Cc3ccccc3)cc2o1 [Compound 15]
cytotoxicity (A549 cells viability, in words) (A549 cells [2]): little or no cytotoxicity

O=c1ccc2ccc(CCc3ccccc3)cc2o1 [Compound 16]
cytotoxicity (A549 cells viability, in words) (A549 cells [2]): little or no cytotoxicity

CC(C)=CCC/C(C)=C/CC/C(C)=C/COc1ccc2ccc(=O)oc2c1 [umbelliprenin]
IC50 (A549 cells [1]): 52 ± 1.97 µM
